# Assay results taken from ChEMBL document CHEMBL4834431, “Design of Dimeric Bile Acid Derivatives as Potent and Selective Human NTCP Inhibitors” (J Med Chem, 2021).
# Activity calls are given as the source filed them. No cut-off for these calls is given here.
# How the values were obtained:
# Hepatitis B virus [1] = test: Antiviral activity against HBV infected in human HepG2-NTCP cells assessed as reduction in HBeAg secretion incubated for 24 hrs followed replacement with fresh medium and measured at day 5 post infection by ELISA; assay type: functional, organism-based
# [2] = Stability in mouse liver microsomes assessed as half life at 1 uM preincubated for 5 mins followed by NADPH addition and measured upto 60 mins by LC-MS analysis; assay type: ADME, Microsome; conditions: time 65 min
# [3] = Stability in mouse liver microsomes assessed as intrinsic clearance at 1 uM preincubated for 5 mins followed by NADPH addition and measured upto 60 mins by LC-MS analysis; assay type: ADME, Microsome; conditions: time 65 min, read-out: CLH
# [4] = molecular target: T1, Hepatic sodium/bile acid cotransporter (Homo sapiens, UniProt Q14973); test: Inhibition of human NTCP-mediated [3H]-TCA uptake expressed in human HepG2 cells in presence of 20 % FBS; assay type: cell-based
# T1 sequence (Q14973 whole entry): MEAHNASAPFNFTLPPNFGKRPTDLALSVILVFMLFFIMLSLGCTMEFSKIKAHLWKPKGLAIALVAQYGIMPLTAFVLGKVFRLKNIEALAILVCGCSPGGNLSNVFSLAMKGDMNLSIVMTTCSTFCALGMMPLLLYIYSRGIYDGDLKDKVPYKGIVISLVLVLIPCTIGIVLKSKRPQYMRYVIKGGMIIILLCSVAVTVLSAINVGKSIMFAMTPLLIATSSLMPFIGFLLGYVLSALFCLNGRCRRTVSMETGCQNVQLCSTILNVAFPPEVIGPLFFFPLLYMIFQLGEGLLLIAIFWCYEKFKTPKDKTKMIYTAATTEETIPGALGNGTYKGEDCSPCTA
# [5] = molecular target: T1, Hepatic sodium/bile acid cotransporter; test: Inhibition of human NTCP-mediated [3H]-TCA uptake expressed in human HepG2 cells in presence of 50 % FBS; assay type: cell-based
# [6] = molecular target: T1, Hepatic sodium/bile acid cotransporter; test: Inhibition of human NTCP-mediated [3H]-TCA uptake expressed in human HepG2 cells pretreated for 2 hrs followed by [3H]-TCA addition in absence of FBS; assay type: cell-based
# Hepatitis B virus [7] = test: Antiviral activity against HBV infected in human HepG2-NTCP cells assessed as reduction in HBeAg secretion at 1 to 10 uM incubated for 24 hrs followed by replacement with fresh medium and measured at day 5 post infection by ELISA; assay type: functional, organism-based; conditions: dose 1-10 µM
# [8] = molecular target: T1, Hepatic sodium/bile acid cotransporter; test: Inhibition of human NTCP-mediated [3H]-TCA uptake expressed in human HepG2 cells at 3.3 uM incubated for 10 mins by liquid scintillation counter analysis; assay type: cell-based; conditions: hepg2, 10 min
# Hepatitis B virus [9] = test: Antiviral activity against HBV infected in human HepG2-NTCP cells assessed as reduction in HBeAg secretion measured at day 7 post infection by ELISA; assay type: functional, organism-based; conditions: HepG2, 168 h
# Hepatitis delta virus [10] = test: (§1) Antiviral activity against HDV infected in human HepG2-NTCP cells assessed as reduction in intranuclear accumulation of HDV delta antigen at 10 uM incubated for 24 hrs followed by replacement with fresh medium and measured at day 5 post infection by DAPI staining based confocal microscopic analysis (reference value: 12.1 %); assay type: functional; parameters: scale not given: the % may be the effect or the level left
# Hepatitis B virus [11] = test: Antiviral activity against HBV infected in human HepG2-NTCP cells assessed as reduction in HBeAg secretion at 111 to 1000 nM incubated for 24 hrs followed by replacement with fresh medium and measured at day 5 post infection by ELISA; assay type: functional, organism-based; conditions: dose 111-1000 nM
# Hepatitis B virus [12] = test: Antiviral activity against HBV infected in human HepG2-NTCP cells assessed as reduction in intracellular HBV RNA level at 1 uM by qPCR analysis; assay type: functional, organism-based
# Hepatitis B virus [13] = test: Antiviral activity against HBV infected in human HepG2-NTCP cells assessed as reduction in intracellular accumulation of HBcAg at 1 uM by immunostaining based fluorescence microscopic analysis; assay type: functional, organism-based
# Hepatitis B virus [14] = test: Antiviral activity against HBV infected in human HepG2-NTCP cells assessed as reduction in intracellular accumulation of HBsAg at 1 uM by immunostaining based fluorescence microscopic analysis; assay type: functional, organism-based
# Hepatitis delta virus [15] = test: as §1, with “5” for “10”; assay type: functional; parameters: scale not given: the % may be the effect or the level left
# Hepatitis B virus [16] = test: Antiviral activity against HBV infected in human HepG2-NTCP cells assessed as reduction in HBeAg secretion at 1 uM preincubated with compound followed by viral infection by ELISA; assay type: functional, organism-based
# Hepatitis B virus [17] = test: Antiviral activity against HBV infected in human HepG2-NTCP cells assessed as reduction in HBeAg secretion at 1 uM compound added along with viral infection by ELISA; assay type: functional, organism-based
# Hepatitis B virus [18] = test: Antiviral activity against HBV infected in human HepG2-NTCP cells assessed as reduction in HBeAg secretion at 1 uM pre-infected with virus followed by compound addition by ELISA; assay type: functional, organism-based
# [19] = molecular target: T1, Hepatic sodium/bile acid cotransporter; test: Inhibition of FITC-labeled HBV Pre-S1 polypeptide binding to human NTCP expressed in HepG2 cells after 2 to 3 hrs by confocal microscopic analysis; assay type: cell-based; conditions: time 2-3 hrs
# HepG2 [20] = test: Cytotoxicity against human HepG2 cells expressing NTCP assessed as reduction in cell viability at 10 uM after 48 hrs by alamar blue assay; assay type: cell-based; conditions: hepg2, 48 h
# Hepatocyte = test: Cytotoxicity against primary tupaia hepatocytes expressing NTCP assessed as reduction in cell viability at 100 uM after 48 hrs by Cell-Titer Glo assay; assay type: cell-based; conditions: scandentia
# HepG2 [21] = test: Effect on NTCP surface expression in human HepG2-NTCP cells assessed as reduction in NTCP surface expression level after 2 hrs by immunostaining based assay; assay type: functional, cell-based
# [22] = molecular target: T1, Hepatic sodium/bile acid cotransporter; test: Inhibition of human NTCP-mediated [3H]-TCA uptake expressed in human HepG2 cells at 2 uM; assay type: cell-based; conditions: hepg2, 2 µM
# [23] = molecular target: T2, Ileal sodium/bile acid cotransporter (Homo sapiens, UniProt Q12908); test: Inhibition of human ASBT-mediated [3H]-TCA uptake expressed in human HepG2 cells at 2 uM; assay type: cell-based; conditions: hepg2, 2 µM
# T2 sequence (Q12908 whole entry): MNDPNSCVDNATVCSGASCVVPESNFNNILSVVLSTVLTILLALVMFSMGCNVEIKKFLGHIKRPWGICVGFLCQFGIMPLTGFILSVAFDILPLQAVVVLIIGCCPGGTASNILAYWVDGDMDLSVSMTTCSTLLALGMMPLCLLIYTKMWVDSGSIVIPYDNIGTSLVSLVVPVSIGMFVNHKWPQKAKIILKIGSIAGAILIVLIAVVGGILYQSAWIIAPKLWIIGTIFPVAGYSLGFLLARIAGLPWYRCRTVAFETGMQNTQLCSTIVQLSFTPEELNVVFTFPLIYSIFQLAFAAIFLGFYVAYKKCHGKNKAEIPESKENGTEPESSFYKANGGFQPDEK
# [24] = molecular target: T1, Hepatic sodium/bile acid cotransporter; test: Inhibition of human NTCP-mediated [3H]-Estrone sulfate uptake expressed in human HepG2 cells at 2 uM; assay type: cell-based; conditions: hepg2, 2 µM
# [25] = molecular target: T3, Solute carrier organic anion transporter family member 1B1 (Homo sapiens, UniProt Q9Y6L6); test: Inhibition of human OATP1B1-mediated [3H]-Estrone sulfate uptake expressed in human HepG2 cells at 2 uM; assay type: cell-based; conditions: hepg2, 2 µM
# T3 sequence (Q9Y6L6 whole entry): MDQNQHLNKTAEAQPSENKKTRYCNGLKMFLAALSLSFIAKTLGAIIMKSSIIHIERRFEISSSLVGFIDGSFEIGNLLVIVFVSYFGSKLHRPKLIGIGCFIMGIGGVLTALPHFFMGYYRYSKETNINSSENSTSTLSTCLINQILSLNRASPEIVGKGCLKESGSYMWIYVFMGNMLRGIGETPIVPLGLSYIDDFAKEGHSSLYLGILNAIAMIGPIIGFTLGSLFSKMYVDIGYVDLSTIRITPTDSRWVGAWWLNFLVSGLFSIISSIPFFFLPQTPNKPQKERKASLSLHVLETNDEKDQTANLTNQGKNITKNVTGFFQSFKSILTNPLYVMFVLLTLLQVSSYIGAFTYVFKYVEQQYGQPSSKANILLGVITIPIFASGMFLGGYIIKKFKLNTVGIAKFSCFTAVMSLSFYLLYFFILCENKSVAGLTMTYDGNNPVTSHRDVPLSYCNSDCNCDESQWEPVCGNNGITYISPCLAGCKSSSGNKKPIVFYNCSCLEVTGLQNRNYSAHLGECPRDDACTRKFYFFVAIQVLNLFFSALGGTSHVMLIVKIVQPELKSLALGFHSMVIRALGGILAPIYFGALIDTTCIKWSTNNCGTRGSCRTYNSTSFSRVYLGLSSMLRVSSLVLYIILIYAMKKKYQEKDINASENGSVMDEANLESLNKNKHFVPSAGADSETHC
# Hepatitis B virus [26] = test: Antiviral activity against HBV infected in human HepG2-NTCP cells assessed as reduction in HBeAg secretion preincubated for 2 hrs followed by viral infection by ELISA; assay type: functional, organism-based
# [27] = molecular target: T1, Hepatic sodium/bile acid cotransporter; test: Inhibition of human NTCP-mediated [3H]-TCA uptake expressed in human HepG2 cells; assay type: cell-based; conditions: human, hepg2
# HepG2 [28] = test: Inhibition of monkey NTCP-mediated [3H]-TCA uptake expressed in human HepG2 cells; assay type: cell-based; conditions: Macaca mulatta
# [29] = molecular target: T4, Hepatic sodium/bile acid cotransporter (Mus musculus, UniProt O08705); test: Inhibition of mouse NTCP-mediated [3H]-TCA uptake expressed in human HepG2 cells; assay type: cell-based
# T4 sequence (O08705 whole entry): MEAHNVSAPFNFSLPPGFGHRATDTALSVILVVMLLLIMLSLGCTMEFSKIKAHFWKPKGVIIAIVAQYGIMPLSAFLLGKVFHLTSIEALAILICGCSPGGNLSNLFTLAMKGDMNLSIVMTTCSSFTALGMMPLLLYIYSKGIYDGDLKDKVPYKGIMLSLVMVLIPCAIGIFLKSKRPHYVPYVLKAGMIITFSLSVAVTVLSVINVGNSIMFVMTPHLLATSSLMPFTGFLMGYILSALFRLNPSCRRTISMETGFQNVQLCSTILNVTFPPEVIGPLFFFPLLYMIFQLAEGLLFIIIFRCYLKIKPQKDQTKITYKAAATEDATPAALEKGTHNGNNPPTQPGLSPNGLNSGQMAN
# HepG2 [30] = test: Inhibition of tree shrew NTCP-mediated [3H]-TCA uptake expressed in human HepG2 cells; assay type: cell-based; conditions: Scandentia
# [31] = molecular target: T1, Hepatic sodium/bile acid cotransporter; test: Inhibition of human NTCP-mediated NQL-064 uptake expressed in human HepG2 cells; assay type: cell-based
# [32] = molecular target: T4, Hepatic sodium/bile acid cotransporter; test: Inhibition of mouse NTCP-mediated NQL-064 uptake expressed in human HepG2 cells; assay type: cell-based
# HepG2 [33] = test: Inhibition of monkey NTCP-mediated NQL-064 uptake expressed in human HepG2 cells; assay type: cell-based; conditions: Macaca mulatta
# HepG2 [34] = test: Inhibition of tree shrew NTCP-mediated NQ-064 uptake expressed in human HepG2 cells; assay type: cell-based; conditions: Scandentia
compound,measurement,setting,value
C[C@H](CCc1cn([C@@H]2CC[C@@]3(C)[C@@H](C2)C[C@H](O)[C@@H]2[C@@H]3CC[C@]3(C)[C@@H]([C@H](C)CCC(=O)NCCS(=O)(=O)O)CC[C@@H]23)nn1)[C@H]1CC[C@H]2[C@@H]3[C@@H](O)C[C@@H]4C[C@H](O)CC[C@]4(C)[C@H]3CC[C@]12C,IC50,Hepatitis B virus [1],24 nM
same,half-life at 1 µM,[2],12.6 min
same,microsomal CLint at 1 µM,[3],55.2 µL/min/mg
same,IC50,[4],> 10000 nM
same,IC50,[5],> 10000 nM
same,IC50,[6],24.5 nM
C[C@H](CCC(=O)NCCS(=O)(=O)O)[C@H]1CC[C@H]2[C@@H]3[C@@H](O)C[C@@H]4C[C@H](O)CC[C@]4(C)[C@H]3CC[C@]12C [TAURURSODIOL],Activity,Hepatitis B virus [7],inactive
same,inhibition (INH),[8],Not Active
same,IC50,Hepatitis B virus [9],3000 nM
same,Activity,Hepatitis delta virus [10],7.1%
C[C@H](CCC(=O)NCCS(=O)(=O)O)[C@H]1CC[C@H]2[C@@H]3[C@@H](O)C[C@@H]4C[C@H](OCc5cn([C@@H]6CC[C@@]7(C)[C@@H](C6)C[C@H](O)[C@@H]6[C@@H]7CC[C@]7(C)[C@@H]([C@H](C)CCC(=O)NCCS(=O)(=O)O)CC[C@@H]67)nn5)CC[C@]4(C)[C@H]3CC[C@]12C,IC50,Hepatitis B virus [1],12 nM
same,Activity,Hepatitis B virus [11],Active
same,Activity,Hepatitis B virus [12],Active
same,Activity,Hepatitis B virus [13],Active
same,Activity,Hepatitis B virus [14],Active
same,Activity,Hepatitis delta virus [15],1.8%
same,Activity,Hepatitis B virus [16],Active
same,Activity,Hepatitis B virus [17],Active
same,Activity,Hepatitis B virus [18],inactive
same,inhibition (INH),[19],Active
same,Activity,HepG2 [20],Non-Toxic
same,Activity,Hepatocyte,Non-Toxic
same,Activity,HepG2 [21],inactive
same,inhibition (INH),[22],Active
same,inhibition (INH),[23],Not Active
same,inhibition (INH),[24],Active
same,inhibition (INH),[25],Not Active
same,Activity,Hepatitis B virus [26],inactive
same,inhibition (INH),[27],Active
same,inhibition,HepG2 [28],inactive
same,inhibition (INH),[29],Not Active
same,inhibition,HepG2 [30],inactive
same,inhibition (INH),[31],Active
same,inhibition (INH),[32],Not Active
same,inhibition,HepG2 [33],inactive
same,inhibition,HepG2 [34],inactive
CC(=O)O[C@@H]1CC[C@@]2(C)[C@@H](C1)C[C@H](O)[C@@H]1[C@@H]2CC[C@]2(C)[C@@H]([C@H](C)CCC(=O)NCCS(=O)(=O)O)CC[C@@H]12,Activity,Hepatitis B virus [7],inactive
same,inhibition (INH),[8],Not Active
